Each block holds one compound with its values, some of them ahead of it.
Columns and labels:
Type in all cases: binding
[1] = molecular target: T1, KRASGDP/S39C lite/CypAC52S (Homo sapiens, UniProt P01116+P62937, C118S/C51S/C52S/C80L/G12V/S39C); assay: Ternary complex formation by SEC and SDS-PAGE; details: SEC profile and SDS-PAGE of elution peaks
T1 construct: residues 1-169 containing G12V/S39C/C51S/C80L/C118S; made in house
Method: (§1) A 1:2:2 molar ratio of compound, presenter protein, and target protein are mixed together in 12.5 mM HEPES pH 7.4, 75 mM NaCl buffer containing 2% DMSO. The reaction is incubated at 37° C. for 30 min, followed by overnight incubation at room temperature. Pure complex is isolated by Size Exclusion Chromatography (SEC) purification. The reaction mixture is directly injected on a Superdex 75 column (CV 120 mL) pre-equilibrated with buffer containing 12.5 mM HEPES pH 7.4, 75 mM NaCl. Complex elutes at a higher molecular weight than unreacted target protein and presenter protein. To confirm presence of complex in the elution peak, samples are assessed by SDS-PAGE.
(§2) The reaction is incubated at 37° C. for 30 min, followed by overnight incubation at room temperature. Pure complex is isolated by Size Exclusion Chromatography (SEC) purification. The reaction mixture is directly injected on a Superdex 75 column (CV 120 mL) pre-equilibrated with buffer containing 12.5 mM HEPES pH 7.4, 75 mM NaCl. Complex elutes at around 69 mL post injection and unreacted KRASGDP/S39C lite and CypAC52S elutes at around 75 mL and 80 mL post injection respectively. To confirm the presence of KRASGDP/S39C lite and CypAC52S in the elution peak, samples are also assessed by SDS-PAGE.

KRASGTP/G12C lite = molecular target: T2, KRASGTP/G12C lite (Homo sapiens, UniProt P01116, C118S/C51S/C80L/G12C); assay: Formation of KRASGTP/G12C lite/SFAX9DS conjugates, SDS-PAGE; details: 1:2 protein:compound
T2 construct: residues 1-169 containing G12C/C51S/C80L/C118S; made in house
Method: (§3) Experimental Protocol: A 1:2 molar ratio of target protein and compound are mixed together in 12.5 mM HEPES pH 7.4, 75 mM NaCl buffer containing 2% DMSO. The reaction is incubated at 37° C. for 30 min, followed by overnight incubation at room temperature. Cross-linking efficiency is assessed by SDS-PAGE gel. Conjugates migrate slower than non-cross-linked target protein. For thiol reactive compounds, the Cys specific attachment of the compound to the target protein can be further confirmed by SDS-PAGE after the addition of 100 mM DTT to the reaction mixture, which reduces the conjugate back into its components.
(§4) Experimental Protocol: A 1:2 molar ratio of KRASGTP/G12C lite and SFAX9DS are mixed together in 12.5 mM HEPES pH 7.4, 75 mM NaCl buffer containing 2% DMSO. The reaction is incubated at 37° C. for 30 min, followed by overnight incubation at room temperature. Cross-linking efficiency is assessed by SDS-PAGE gel. Wild-type CypA also cross-linked with the compound. Cysteine 52 as a reactive Cysteine on CypA and was mutated to Serine to abrogate presenter cross-linking.

CypAC52S = molecular target: T3, CypAC52S (Homo sapiens, UniProt P62937, C52S); assay: Presenter cross-linking with SFAX9DS, SDS-PAGE
T3 construct: made in house
Method: as §4

KRASGTP/S39C lite/FKBP12 = molecular target: T4, KRASGTP/S39C lite/FKBP12 (Homo sapiens, UniProt P01116+P62942, C118S/C51S/C80L/G12V/S39C); assay: Ternary complex formation by SEC and SDS-PAGE; details: SEC profile and SDS-PAGE of elution peaks
T4 construct: residues 1-169 containing G12V/S39C/C51S/C80L/C118S; made in house
Method: as §1
as §2, with “KRASGTP/S39C” for “KRASGDP/S39C”, “FKBP12” for “CypAC52S”, “87” for “80”

KRASGTP/S39C lite = molecular target: T5, KRASGTP/S39C lite (Homo sapiens, UniProt P01116, C118S/C51S/C80L/G12V/S39C); assay: Formation of KRASGTP/S39C lite/C2-FK506 conjugates, SDS-PAGE
T5 construct: residues 1-169 containing G12V/S39C/C51S/C80L/C118S; made in house
Method: as §3
Experimental Protocol: A 1:2 molar ratio of KRASGTP/S39C lite and C2-FK506 are mixed together in 12.5 mM HEPES pH 7.4, 75 mM NaCl buffer containing 2% DMSO. The reaction is incubated at 37° C. for 30 min, followed by overnight incubation at room temperature. Cross-linking efficiency is assessed by SDS-PAGE gel. Attachment of C2-FK506 to Cysteine 39 on KRASGTP/S39C lite is also assessed by incubation of the reaction mixture with 100 mM DTT.

KRASGTP/G12C [2] = molecular target: T6, KRASGTP/G12C (Homo sapiens, UniProt P01116+P62942, G12C); assay: Disulfide cross-linking efficiency by mass spectrometry, with or without FKBP12; details: 2 μM KRAS, 10 μM ligand, 4 hours RT, MS
T6 construct: KRASGTP/G12C (in-house, residues 1-169); made in house
Method: Experimental protocol: In order to follow the kinetics of disulfide crosslinking reactions, Agilent 6230 TOF-LC/MS and Agilent 1260 HPLC instruments employing a AdvanceBio RP-mAb C4 column (2.1×100 mm, 3.5 μm) and equipped with an auto-sampler were used. HPLC grade acetonitrile and water (each containing 1.0 mM ammonium formate and 1% formic acid by volume) were used as mobile phase with the following ramp: 0.6 ml/min flow rate, water:acetonitrile=95:5 from 0.0 to 13.0 min ramping to water:acetonitrile=5:95 from 13.0 to 17.0 min. Total time=17.0 min.
All crosslinking reactions were performed in 1.5 mL amber colored glass vials equipped with 0.5 mL glass inserts. A water-soluble peptide (SEQ ID NO: 1: […]) was employed as an internal standard. Although the actual sequence of the internal standard is inconsequential, choice of amino acid residues were critical to avoid interference in the crosslinking assays. […] All reactions and standard solutions were prepared in HEPES (pH 7.4, 1.0 mM MgCl2) buffer.
Prior to every reaction, a standard curve was obtained for the individual components using a series of standard solutions (an example of standard curve analysis for FKBP12 is shown in Table 3 below). Using the data from standard curve, μmol of protein samples were plotted against the ratio of areas (sample:std) and a linear fit (y=mx+c) was employed to obtain the slope and intercept. The value of slope and intercept involved in these standard curves were accounted for during evaluation of the substrate and product concentration before and during the course of the reaction. For every substrate/product, an initial injection was followed up by a blank injection to verify presence of any residual protein/reagents. Based on this analysis the sequence of auto-sampler can be adjusted to included appropriate number of blank injections for removal of residual components, if any. The MS spectra were analyzed using Agilent MassHunter v B.07.0 software.
In a representative experiment to assess the presenter dependency of ligand cross-linking on the target protein, KRASGTP/G12C and either C3- or C4-SLF ligand were incubated in the presence or absence of FKBP12 at concentrations of 2 μM KRAS, 10 μM FKBP12, 10 μM C3- or C4-SLF for 4 hours at room temperature in 12.5 mM HEPES pH 7.4, 75 mM NaCl, 1 mM MgCl2, 3% DMSO. Analysis of the amount of KRAS undergoing disulfide cross-linking with the ligand using the method above.

KRASGTP/G12C [3] = molecular target: T6, KRASGTP/G12C; assay: Cross-linking gel shift assay (12% SDS-PAGE), with or without FKBP12; details: 60 μM KRAS, 180 μM FKBP12, 180 μM ligand, quenched by MMTS
Method: In parallel to mass spectrometry analysis, cross-linking reactions with C3- or C4-SLF were subjected to gel shift assay using 12% SDS-PAGE in the presence or absence of FKBP12 at the same experimental condition described above except that cross-linking reactions were set up at higher concentrations (60 μM KRAS, 180 μM FKBP12, and 180 μM C3- or C4-SLF) and they were quenched by MMTS to terminate the reaction.

T3 sequence (P62937 whole entry C52S): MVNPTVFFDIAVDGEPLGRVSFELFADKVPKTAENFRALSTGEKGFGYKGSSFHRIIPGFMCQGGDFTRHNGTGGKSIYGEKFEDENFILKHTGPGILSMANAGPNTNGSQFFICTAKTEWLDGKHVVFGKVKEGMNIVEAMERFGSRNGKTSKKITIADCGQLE

Formation of KRASGDP/S39C lite/SFAC4DS/CypAC52S complex [1]: confirm the formation
Structure (SMILES): COC(=O)[C@@H]1CCCN(C(=O)[C@H](Cc2cccc(O)c2)NC(=O)[C@@H](NC(=O)CCCSSc2ccccn2)C(C)C)N1 [SFAC4DS, methyl (S)-1-((S)-3-(3-hydroxyphenyl)-2-((S)-3-methyl-2-(4-(pyridin-2-yldisulfanyl)butanamido)butanamido)propanoyl)hexahydropyridazine-3-carboxylate]

Structure (SMILES): COC(=O)[C@@H]1CCCN(C(=O)[C@H](Cc2cccc(O)c2)NC(=O)[C@@H](NC(=O)CCOCCOCCSSc2ccccn2)C(C)C)N1 [SFAX9DS]
Cross-linking efficiency with KRASGTP/G12C lite (KRASGTP/G12C lite): cross-links efficiently | Cross-linking of presenter CypAC52S to compound (CypAC52S): does not cross-link

Structure (SMILES): CCC(C)(C)C(=O)C(=O)N1CCCC[C@H]1C(=O)OCCCC(=O)NCCSSc1ccccn1 [Compound C2-Holt]
Formation of KRASGTP/S39C lite/C2-Holt/FKBP12 complex (KRASGTP/S39C lite/FKBP12): confirm the formation

Cross-linking efficiency with KRASGTP/S39C lite (KRASGTP/S39C lite; 1:2 protein:compound, 37° C. 30 min then overnight RT): cross-links efficiently | Site specificity of attachment (KRASGTP/S39C lite; reaction mixture + 100 mM DTT): specific for Cysteine 39
Structure (SMILES): CO[C@H]1C[C@@H](C)C/C(C)=C/[C@@H](CCCC(=O)NCCSSc2ccccn2)C(=O)C[C@H](O)[C@@H](C)[C@@H](/C(C)=C/[C@@H]2CC[C@@H](O)[C@H](OC)C2)OC(=O)[C@@H]2CCCCN2C(=O)C(=O)[C@]2(O)O[C@H]1[C@@H](OC)C[C@H]2C [Compound C2-FK506]

Structure (SMILES): CCC(C)(C)C(=O)C(=O)N1CCCC[C@H]1C(=O)O[C@H](CCc1ccc(OC)c(OC)c1)c1cccc(NC(=O)CCCSSc2ccccn2)c1 [Compound C4-SLF, (R)-3-(3,4-dimethoxyphenyl)-1-(3-(4-(pyridin-2-yldisulfanyl)butanamido)phenyl)propyl (S)-1-(3,3-dimethyl-2-oxopentanoyl)piperidine-2-carboxylate]
% × link to KRAS (KRASGTP/G12C [2]; FKBP12 absent (−)): 7.0% | % × link to KRAS (KRASGTP/G12C [2]; FKBP12 present (+) 10 μM): 69.8% | Ligand cross-linking efficiency in the presence of FKBP12, gel shift (KRASGTP/G12C [3]): boosted significantly

Source: patent US9989535B2, “Methods and reagents for analyzing protein-protein interfaces” (Warp Drive Bio, Inc., priority 2015, dated 2018)
